Experimental data from US7294491B2 (Ajinomoto Co., Inc., priority 2003, dated 2007).

Tests used:
[1] = crystal form of L-glutamic acid crystals precipitated in a cooling-crystallization system with added amino acid; assay type: physicochemical; conditions: FIG. 7
[2] = precipitation concentration (super solubility) of L-glutamic acid in culture medium at pH 4.5 with added L-lysine; assay type: physicochemical, Pantoea ananatis AJ13601; conditions: pH 4.5 culture
Procedure: Cells of the Pantoea ananatis AJ13601 strain cultured at 30° C. for 14 hours in the LBG agar medium (10 g/L of trypton, 5 g/L of yeast extract, 10 g/L of NaCl, 15 g/L of agar) containing 25 mg/L of tetracycline hydrochloride and 25 mg/L of chloramphenicol were scraped from one plate and inoculated into 300 ml of seed culture medium having the following composition and contained in a 1 L-volume jar fermenter, and seed culture was performed at 34° C. and pH 6.0.
The pH was adjusted to 6.0 by adding ammonia gas during the culture. The seed culture was finished by observing depletion of the saccharide in the medium as an index, and the seed culture medium of 20% volume of the main culture medium was inoculated into 300 ml of the main culture medium contained in a 1 L-volume jar fermenter to perform the main culture under the conditions of 34° C. and pH 4.5. The composition of the main culture medium is shown below.
The pH was adjusted to 4.5 by adding ammonia gas during the culture. After the saccharide in the medium was consumed and depleted, 700 g/L of glucose aqueous solution was continuously added (6 ml/hr).
The liquid supernatant of the culture medium was obtained by centrifuging the culture medium at 10000×G for 1 minute. The polymorphism of crystals which precipitated in the culture medium was determined by microscopic observation.

SMILES | control of precipitated L-glutamic acid crystal form by added amino acid ([1]; pH 4.5, super saturation 2, 34° C.) | concentration of added L-lysine above which α-form crystals form naturally without seed crystals [2] | control of precipitated L-glutamic acid crystal form by added amino acid ([1]; pH 3.2, super saturation 2, 34° C.) | control of precipitated L-glutamic acid crystal form by added amino acid ([1]; pH 4.5 or more, super saturation 2, 34° C.)
NCCCC[C@H](N)C(=O)O [L-lysine] | could be controlled to the α-form | exceeds 900 mg/L | – | –
N[C@@H](Cc1ccccc1)C(=O)O [L-phenylalanine] | – | – | showed the same effect | such an effect could not be observed
